Laboratory results as given in US11059815B2, “Synthesis of small molecule histone deacetylase 6 degraders, compounds formed thereby, and pharmaceutical compositions containing them” (Wisconsin Alumni Research Foundation, priority 2018, dated 2021).

Molecular target: T1, HDAC6 (Homo sapiens, UniProt Q9UBN7)
T1 construct: endogenous in cells; host or cells: MM1S (ATCC CRL-2974)
T1 sequence (Q9UBN7 1-1215): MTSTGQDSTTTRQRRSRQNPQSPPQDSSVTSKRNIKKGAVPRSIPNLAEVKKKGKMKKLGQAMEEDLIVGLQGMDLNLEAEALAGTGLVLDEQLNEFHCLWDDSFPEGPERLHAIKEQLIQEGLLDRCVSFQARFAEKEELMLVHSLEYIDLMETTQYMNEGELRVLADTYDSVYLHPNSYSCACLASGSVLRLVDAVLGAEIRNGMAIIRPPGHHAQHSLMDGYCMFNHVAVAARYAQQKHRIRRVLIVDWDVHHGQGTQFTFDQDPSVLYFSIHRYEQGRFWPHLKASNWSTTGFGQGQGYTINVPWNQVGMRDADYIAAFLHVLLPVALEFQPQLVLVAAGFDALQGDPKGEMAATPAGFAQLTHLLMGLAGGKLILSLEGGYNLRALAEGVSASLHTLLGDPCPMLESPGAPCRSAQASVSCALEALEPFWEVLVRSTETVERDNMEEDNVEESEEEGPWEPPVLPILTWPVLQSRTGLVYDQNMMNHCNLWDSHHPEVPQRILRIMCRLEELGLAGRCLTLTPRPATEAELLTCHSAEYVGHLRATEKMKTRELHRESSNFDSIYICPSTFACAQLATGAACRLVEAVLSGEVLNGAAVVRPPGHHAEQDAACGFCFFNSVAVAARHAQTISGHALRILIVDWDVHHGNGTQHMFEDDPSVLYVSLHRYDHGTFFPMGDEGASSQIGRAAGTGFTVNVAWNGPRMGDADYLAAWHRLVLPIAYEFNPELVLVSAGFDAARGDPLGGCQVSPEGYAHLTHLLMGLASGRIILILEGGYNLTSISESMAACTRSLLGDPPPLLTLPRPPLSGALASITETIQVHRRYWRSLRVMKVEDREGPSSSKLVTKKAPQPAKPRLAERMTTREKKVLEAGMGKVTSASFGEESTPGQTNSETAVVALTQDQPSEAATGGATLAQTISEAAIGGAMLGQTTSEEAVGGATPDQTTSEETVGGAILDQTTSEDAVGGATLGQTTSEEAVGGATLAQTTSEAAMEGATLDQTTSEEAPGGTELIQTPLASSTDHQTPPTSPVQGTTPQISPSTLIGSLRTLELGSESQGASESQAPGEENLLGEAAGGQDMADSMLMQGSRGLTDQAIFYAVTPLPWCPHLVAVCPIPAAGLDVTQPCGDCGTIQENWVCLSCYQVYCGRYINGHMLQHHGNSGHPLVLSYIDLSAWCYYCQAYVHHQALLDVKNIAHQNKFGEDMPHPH
Experiment: In-cell ELISA of HDAC6 protein level in MM1S cells
Type: cell-based
Conditions: 6 h; for DC50 / Dmax: 0.1 nM to 1 μM, nonlinear fit, ± SD; for Dmax / inhibition at 0.01 µM / inhibition at 0.1 µM: MM1.S; for Dmax: read-out: Dmax (Vehicle %); for inhibition at 0.01 µM: n=3, read-out: Degradation (%) 10 nM; for inhibition at 0.1 µM: n=3, read-out: Degradation (%) 100 nM
Description: FIG. 9 is a histogram depicting the results of screening of compounds for HDAC6 degradation activity by in-cell ELISA. MM1S cells were treated with compounds at 100 nM (blue bars) or 10 nM (red bars) for 6 h. Data was normalized to vehicle (DMSO)-treated group and the bar graph represents as mean of relative HDAC6 protein level (n=3) with ±SD as error bar. Statistical significance was analyzed by one-way ANOVA. Not significant (ns) P>0.05, *P≤0.05, **P≤0.01, ***P≤0.001, ****P≤0.0001.
FIG. 11 is a graph depicting dose response of selected degrader candidates. MM1S cells were treated for 6 h and analyzed by in-cell ELISA. Data was normalized to vehicle (DMSO)-treated group and dot plot represented as mean relative expression (n=3) with ±SD as error bar. Nonlinear fitting of inhibitor concentration vs. response (three parameters) was generated by GraphPad Prism with R2 from 0.97 to 0.99.
FIG. 15 is a histogram depicting relative HDAC6 expression as a function of linker length for compounds 3a through 3k as described in the Examples section, Part 2. Human MM1S cells were treated with 100 nM degraders for 6 hours and analyzed by in-cell ELISA assay.
FIG. 17 is a dose-response curve for degraders 3j (n=1), 3k (n=12) and 2, at concentrations from 1 nM to 300 nM for 4 h in MM1S. See the Examples, Part 2.
To screen the new series of degraders, an in-cell ELISA assay was developed and validated. The compounds were treated at 100 nM and 10 nM in MM1S cells for 6 h. Resulting cells were then fixed and analyzed by in-cell ELISA. […] Degraders including 1 at 100 nM degraded 73.5% to 85.0% of HDAC6 with minor difference. At 10 nM concentration of compounds, obvious structure-activity-relationship (SAR) was observed. […] For example, 12d, 12h, 12i, 12o and 12p all achieved about 70% degradation. Among the C4-linked series, 12d with medium length linker (5+1) achieved most degradation in sub-series 12a-e (m=1). […] Among C5-linked series, the potency of sub-series 12l-p (m=1) increased with the linker length. […] It appeared that both the distance and linking positions contributed to the degradation efficiency. The rigid triazole ring in the middle of the linker likely modulated the plasticity of degrader-bridged ternary complex.
The amount of cellular HDAC6 was measured in response to concentrations of compounds from 0.1 nM to 1 μM. […] The new degraders had single-digit nanomolar DC50, which was about 3 to 5 fold of improvement from 9.12 nM of degrader 1. […] As discussed above, most PROTACs were designed to avoid degrading other proteins except the targeted POIs. However, in these studies, it was hypothesized that HDAC6 degraders with IKZF degradation will have enhanced anti-proliferation effect MM1S cells.
MM1S cells were harvested and plated with 5×10^5 cells in 100 μL media per well 96-wells plate. After overnight seeding, 25 μL media containing 5× dosing concentration of the compounds or vehicle was added to each well. After 6-hour treatment at 37° C. in a humidified 5% CO2 atmosphere, cells were fixed by adding 125 μL 8% formaldehyde in TBS buffer (137 mM NaCl, 25 mM Tris, 2.7 mM potassium chloride, pH 7.6) and incubated at room temperature (RT) for 15 minutes. Removal of fixing solution was followed by once rinse and twice washes with TBS-T washing buffer (137 mM NaCl, 20 mM Tris, 0.1% Tween, pH 7.6). Cells were then permeabilized by adding 100 μL 0.1% Triton-X in TBS and incubated at RT for 15 minutes. Removal of permeabilizing solution was followed by once rinse and once wash with TBS-T. Cellular endogenous peroxidases were quenched by adding 100 μL 1% H2O2 in TBS and incubation at RT for 20 minutes. Removal of quenching solution was followed by once rinse and once wash with TBS-T. Non-specific binding sites were blocked by adding […] 5% BSA in TBS-T (with 0.02% NaN3) and incubation at 4° C. overnight. […]

[1] = 10 nM, 100% minus mean (± SD) relative HDAC6 expression
[2] = 100 nM, 100% minus mean (± SD) relative HDAC6 expression

Structure (SMILES)	DC50	Degradation (%) 10 nM (10 nM, 100% minus mean (± SD) relative HDAC6 expression, n=3)	Dmax	inhibition at 0.01 µM [1]	inhibition at 0.1 µM [2]	effect on expression of HDAC6 compared with vehicle (10 nM)	effect on expression of HDAC6 compared with vehicle (100 nM)
O=C(CCCCCCC(=O)N/N=C/c1ccc(OCCOCCOCCn2cc(CNc3cccc4c3C(=O)N(C3CCC(=O)NC3=O)C4=O)nn2)cc1)NO (stereo not drawn) [Compound 1]	9.12 nM	47.9 ± 0.9%	84.1 ± 2.41%	47.9%	73.5 ± 0.3%		
CCCCN(Cc1ccc(C(=O)NO)cc1)C(=O)Nc1ccc(OCCCCCn2cc(CNc3cccc4c3C(=O)N(C3CCC(=O)NC3=O)C4=O)nn2)cc1 (stereo not drawn) [Compound 12d, 4-((1-butyl-3-(4-((5-(4-(((2-(2,6-dioxopiperidin-3-yl)-1,3-dioxoisoindolin-4-yl)amino)methyl)-1H-1,2,3-triazol-1-yl)pentyl)oxy)phenyl)ureido)methyl)-N-hydroxybenzamide]	1.64 nM		86.3 ± 1.7%	~70%	82.7 ± 1.7%		
CCCCN(Cc1ccc(C(=O)NO)cc1)C(=O)Nc1ccccc1 [Next-A, 4-[[butyl[(phenylamino)carbonyl]amino]methyl]-N-hydroxy-benzamide, reference compound]						didn't affect	very minimal effects
Nc1cccc2c1C(=O)N(C1CCC(=O)NC1=O)C2=O (stereo not drawn) [Pomalidomide, reference compound]						didn't affect	very minimal effects
CCCCN(Cc1ccc(C(=O)NO)cc1)C(=O)Nc1ccc(OCCCn2cc(CNc3ccc4c(c3)C(=O)N(C3CCC(=O)NC3=O)C4=O)nn2)cc1 (stereo not drawn) [Compound 12m, 4-((1-butyl-3-(4-(3-(4-(((2-(2,6-dioxopiperidin-3-yl)-1,3-dioxoisoindolin-5-yl)amino)methyl)-1H-1,2,3-triazol-1-yl)propoxy)phenyl)ureido)methyl)-N-hydroxybenzamide]				60.3 ± 1.3%	81.2 ± 0.6%		
